Values joined by “and” are separate entries in the source; they are usually repeats but may differ in a detail not shown here. Identical values can stand only once. “Also recorded” adds a separate entry of the source. Marks after values point to notes of the source that are not given here. Values belong to the molecule of their own block, whether it stands above or below them.
Assays:
[1] = Particle size analysis (light obscuration / laser diffraction); format: physicochemical
Source text: The particle size of the taxane particles can be determined by a particle size analyzer instrument and the measurement is expressed as the mean diameter based on a number distribution (number). A suitable particle size analyzer instrument is one which employs the analytical technique of light obscuration, also referred to as photozone or single particle optical sensing (SPOS). A suitable light obscuration particle size analyzer instrument is the ACCUSIZER, such as the ACCUSIZER 780 SIS, available from Particle Sizing Systems, Port Richey, Fla. Another suitable particle size analyzer instrument is one which employs laser diffraction, such as the Shimadzu SALD-7101.
Particle size was analyzed by both light obscuration and laser diffraction methods. An Particle Sizing Systems AccuSizer 780 SIS system was used for the light obscuration method and Shimadzu SALD-7101 was used for the laser diffraction method.
The vials were vortexed for approximately 10 seconds and then sonicated in a sonic bath approximately 1 minute.
The vial was vortexed for approximately 10 seconds and then sonicated in a sonic bath for approximately 2 minutes. This suspension was used for laser diffraction analysis. Unused suspension was poured into a 125 mL particle-free plastic bottle, which was then filled to approximately 100 mL with filtered dispersant. The suspension was vortex for approximately 10 seconds and then sonicated in the sonic bath for approximately 2 minutes. This diluted suspension was used for light obscuration analysis.
A background test was first performed prior to analyzing particles on the AccuSizer 780 SIS. A new particle-free plastic bottle was filled with blank suspension solution by pumping from a reservoir, using a peristaltic pump, through a 0.22 μm Millipore filter and into the bottle. A background analysis was run to ensure the particle/mL count was below 100 particles/mL. […] Once the analysis was completed, the background data was removed and any measurement with less than four counts was removed.
To analyze particles on SALD-7101 using a batch cell, the analysis was started by choosing Manual Measurement. The refractive index was set as 1.5 to 1.7. The batch cell was filled with filtered dispersant just past the etched line. The blank measurement was ran. […] The measurements were executed, and the resulting graph with the highest level of confidence was selected; background was automatically accounted for.

[2] = BET specific surface area (SSA); format: physicochemical
Description: As used herein, the “specific surface area” (SSA) is the total surface area of the taxane particle per unit of taxane mass as measured by the Brunauer-Emmett-Teller (“BET”) isotherm by the following method: a known mass between 200 and 300 mg of the analyte is added to a 30 mL sample tube. […] The automated test is then carried out using the BETWIN® software package and the surface area of each sample is subsequently calculated. As will be understood by those of skill in the art, the “taxane particles” can include both agglomerated taxane particles and non-agglomerated taxane particles; since the SSA is determined on a per gram basis it takes into account both the larger agglomerated and smaller non-agglomerated taxane particles in the composition. The agglomerated taxane particles are defined herein as individual taxane particles that are formed by the agglomeration of smaller particles which fuse together forming the larger individual taxane particles, all of which occurs during the processing of the taxane particles. […]
A known mass between 200 and 300 mg of the analyte was added to a 30 mL sample tube. […] The automated test was then carried out using the BETWIN® software package and the surface area of each sample was subsequently calculated.

[3] = Bulk density (not tapped); format: physicochemical
Description: As used herein, the “specific surface area” (SSA) is the total surface area of the taxane particle per unit of taxane mass as measured by the Brunauer-Emmett-Teller (“BET”) isotherm by the following method: a known mass between 200 and 300 mg of the analyte is added to a 30 mL sample tube. […] The automated test is then carried out using the BETWIN® software package and the surface area of each sample is subsequently calculated. As will be understood by those of skill in the art, the “taxane particles” can include both agglomerated taxane particles and non-agglomerated taxane particles; since the SSA is determined on a per gram basis it takes into account both the larger agglomerated and smaller non-agglomerated taxane particles in the composition. The agglomerated taxane particles are defined herein as individual taxane particles that are formed by the agglomeration of smaller particles which fuse together forming the larger individual taxane particles, all of which occurs during the processing of the taxane particles. The BET specific surface area test procedure is a compendial method included in both the United States Pharmaceopeia and the European Pharmaceopeia. […]
The mass of the drug was measured to a nearest 0.1 mg, the volume was determined to the nearest 0.1 mL and the density calculated.

[4] = Paclitaxel dissolution study, methanol/water 50/50, USP Apparatus II; format: physicochemical; settings: methanol/water 50/50 (v/v), 37° C., pH 7, paddle 75 rpm
Description: Beads were transferred to a stainless steel mesh container and placed in the dissolution bath containing methanol/water 50/50 (v/v) media at 37° C., pH 7, and a USP Apparatus II (Paddle), operating at 75 rpm. […] Absorbance values of the samples were compared to those of standard solutions prepared in dissolution media to determine the amount of material dissolved. […] Absorbance values of the samples were compared to those of standard solutions prepared in dissolution media to determine the amount of material dissolved.
(§1) Beads were transferred to a stainless steel mesh container and placed in the dissolution bath containing methanol/water 50/50 (v/v) media at 37° C., pH 7, and a USP Apparatus II (Paddle), operating at 75 rpm. At 10, 20, 30, 60, and 90 minutes, a 5 mL aliquot was removed, filtered through a 0.22 μm filter and analyzed on a U(V/V)is spectrophotometer at 227 nm. Absorbance values of the samples were compared to those of standard solutions prepared in dissolution media to determine the amount of material dissolved.

[5] = Docetaxel dissolution study, methanol/water 15/85, USP Apparatus II; format: physicochemical; settings: for Docetaxel Dissolution time course: methanol/water 15/85
Description: as §1, with “The procedures used to determine the dissolution rates are as follows. […] Beads” for “Beads”, “UV/VIS” for “U(V/V)is”, “dissolved. […] At 5, 15, 30, 60, 120 and 225 minutes, a 5 mL aliquot was removed, filtered through a 0.22 μm filter, and analyzed on a UV/VIS spectrophotometer at 232 nm. Absorbance values of the samples were compared to those of standard solutions prepared in dissolution media to determine the amount of material dissolved.” for “dissolved.”
At 5, 15, 30, 60, 120 and 225 minutes, a 5 mL aliquot was removed, filtered through a 0.22 μm filter, and analyzed on a UV/VIS spectrophotometer at 232 nm. Absorbance values of the samples were compared to those of standard solutions prepared in dissolution media to determine the amount of material dissolved.

[6] = system: UM-UC-3 bladder cancer cell line (ATCC-CRL-1749) tumors; assay: Human bladder cancer (UM-UC-3) mouse xenograft study, tumor volume; format: in vivo, Hsd:Athymic Nude-Foxn1nu nude mice
Description: Tumor volume was determined with calipers. […] Animals were weighed 2×/week.
At day 18 after tumor implant, when average tumor size was between 50-325 mm^3, animals were sorted into five groups with equal average tumor sizes and were treated as shown in Table 8 below.
The second treatments (2nd cycle) occurred 7 days following first treatment (1st cycle) and third treatments (3rd cycle) occurred 14 days following the first treatment. The docetaxel solution IV was administered via the tail vein.
The test formulations were prepared as follows: • Vehicle (Control): Diluted 1 ml of the 1% Polysorbate 80/8% Ethanol in normal saline (0.9% Sodium Chloride for Injection) reconstitution solution with 1.5 mL of normal saline (0.9% Sodium Chloride for Injection, USP). […] Vigorously hand shook the vial with inversions for 1 minute. […] Vortexed to mix.
Tumor volumes were determined 2×/week for the duration of the study (61 days). The results of the study are shown in FIG. 4, FIG. 5, FIG. 6, FIG. 7, FIG. 8, FIG. 9, FIG. 10, FIG. 11, FIG. 12 & FIG. 13. […] These observations are also reflected in FIG. 5, FIG. 6, FIG. 7, FIG. 8, FIG. 9, FIG. 12 & FIG. 13.

[7] = system: UM-UC-3 bladder cancer cell line (ATCC-CRL-1749) tumors; assay: Xenograft study: histology (H&E) and immunohistochemistry of tumor site tissue; format: in vivo, Hsd:Athymic Nude-Foxn1nu nude mice
[8] = IV docetaxel 3 cycles; of 7 tumors measured; day of death or euthanasia
[9] = IV Docetaxel 3 cycles, 2 animals

Number Mean (um) [1]: 1.16 um
Volume Mean (um) [1]: 1.29 um
Surface Area (m^2/g) ([2]; BET): 10.4 m^2/g
BET surface area ([2]; Example 1 results text): 7.25 m^2/g
Bulk Density [3]: 0.26 g/mL
Dissolution (30 min) [4]: 18%
SMILES: CC(=O)O[C@H]1C(=O)[C@@]2(C)[C@H]([C@H](OC(=O)c3ccccc3)[C@]3(O)C[C@H](OC(=O)[C@H](O)[C@@H](NC(=O)c4ccccc4)c4ccccc4)C(C)=C1C3(C)C)[C@]1(OC(C)=O)CO[C@@H]1C[C@@H]2O [Paclitaxel Raw Material, paclitaxel]

SMILES: CC(=O)O[C@@]12CO[C@@H]1C[C@H](O)[C@@]1(C)C(=O)[C@H](O)C3=C(C)[C@@H](OC(=O)[C@H](O)[C@@H](NC(=O)OC(C)(C)C)c4ccccc4)C[C@@](O)([C@@H](OC(=O)c4ccccc4)[C@H]21)C3(C)C [Docetaxel Raw Material, docetaxel]
Number Mean (um) [1]: 1.58 um
Volume Mean (um) [1]: 5.05 um
Docetaxel Dissolution time course ([5]; 0 minutes): 0.0%
Docetaxel Dissolution time course ([5]; 5 minutes): 3.2%
Docetaxel Dissolution time course ([5]; 15 minutes): 6.9%
Docetaxel Dissolution time course ([5]; 30 minutes): 11.2%
Docetaxel Dissolution time course ([5]; 60 minutes): 16.4%
Docetaxel Dissolution time course ([5]; 120 minutes): 22.4%
Docetaxel Dissolution time course ([5]; 225 minutes): 26.8%
Dissolution (30 min) ([5]; docetaxel, methanol/water 15/85 (v/v), 37° C., pH 7, paddle 75 rpm, 30 min): 11%

SMILES: CC(=O)O[C@@]12CO[C@@H]1C[C@H](O)[C@@]1(C)C(=O)[C@H](O)C3=C(C)[C@@H](OC(=O)[C@H](O)[C@@H](NC(=O)OC(C)(C)C)c4ccccc4)C[C@@](O)([C@@H](OC(=O)c4ccccc4)[C@H]21)C3(C)C [Docetaxel, docetaxel]
tumor volume ([6]; Docetaxel Solution 30 mg/kg IV, 3 weekly cycles, to Day 61): Tumor volumes decreased initially; also recorded: subsequently increased; also recorded: somewhat effective at treating small tumors, but not very effective in treating large tumors
Necropsy volume (mm^3), per animal ([6]; IV Docetaxel 3 cycles (B1, B3)): 2872 mm^3 and 1652 mm^3
histology general observations (H&E) ([7]; Docetaxel Solution IV 3 cycles): many viable appearing tumor masses with some macrophage and occasional lymphocytic response along with some tumor necrosis
Maximum tumor size on slide / size of viable nodules (mm), per animal ([7]; IV Docetaxel 3 cycles (cases B1, B3)): 11 mm and 15 mm
Macrophage infiltrate density (CD68): animals graded Mild [7, 9]: 2
Maximum size of viable invasive carcinoma on the slide: animals with >10 mm [7, 9]: 2*
Percentage of tumor showing necrosis: animals with 11-50% [7, 9]: 1
Percentage of tumor showing necrosis: animals with 50-90% [7, 9]: 1
tumors with docetaxel levels above the limit of quantitation (1 ng/g) [8]: 1

Source: patent publication US20190209514A1, “Treatment of Bladder Cancer by Local Administration of Taxane Particles” (CRITITECH, INC., priority 2018, published 2019)
